From PubChem BioAssay AID520 (NMMLSC, 2006)
Calls of active or inactive are those of the source. The rule behind the calls is not given here.

Molecular target: N-formyl peptide receptor 2 (Homo sapiens) (UniProt P25090)
Assay: FPRL1 binding inhibitor potency, dose response, cell-based, FPR counter-screen, fluorescent ligand (AID 520)
Settings: FPRL1-expressing cells, fluorescent ligand binding inhibition; for Ki: measured here: FPRL1 binding Ki

Chain of N-formyl peptide receptor 2 (Homo sapiens) (P25090 whole entry, looked up): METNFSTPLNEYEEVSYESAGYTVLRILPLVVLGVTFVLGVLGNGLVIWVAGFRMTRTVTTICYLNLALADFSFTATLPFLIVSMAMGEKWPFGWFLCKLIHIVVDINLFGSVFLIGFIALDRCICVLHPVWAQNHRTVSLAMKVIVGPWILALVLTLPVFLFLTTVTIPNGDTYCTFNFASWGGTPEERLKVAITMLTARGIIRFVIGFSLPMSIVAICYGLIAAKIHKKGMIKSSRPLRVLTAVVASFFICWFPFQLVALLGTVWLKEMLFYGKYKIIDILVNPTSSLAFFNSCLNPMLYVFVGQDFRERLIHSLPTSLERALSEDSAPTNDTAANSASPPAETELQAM

SMILES	IC50	Ki [µM]
Cc1nc(C)c(C(=O)C2=C(O)C(=O)N(CCCn3ccnc3)C2c2ccc(Cl)cc2)s1 (configuration not stated)	> 66.7 µM (inactive)	> 40.3
CCN(CCCc1ccccc1)CCCc1ccccc1	–	> 40.3
O=C(NCCCN1CCN(c2ccc(F)cc2)CC1)c1cccc(N2CCCC2=O)c1	–	> 40.3
CCC(Sc1nc2c(c(=O)[nH]1)CCC2)C(=O)Nc1cccc(OC)c1 (configuration not stated)	–	> 40.3
COc1ccccc1C1/C(=C(/O)c2ccccc2)C(=O)C(=O)N1CC(C)C (configuration not stated)	> 66.7 µM (inactive)	> 40.3
Cc1ccc(Nc2nc(C3CC3)cs2)cc1	–	> 40.3
Cc1[nH]n2c(=O)c3c(nc2c1-c1ccccc1)CCC3	–	> 40.3
C=CCOc1cccc(C2C(C(=O)c3ccco3)=C(O)C(=O)N2CCN2CCOCC2)c1 (configuration not stated)	> 66.7 µM (inactive)	> 40.3
CCC(C)(C(=O)NC1CCCC1)N(CC1CCCO1)C(=O)c1ccc2c(c1)OCO2 (configuration not stated)	–	> 40.3
Cc1cccc(-n2nc3c(c2NC(=O)c2ccco2)CSC3)c1C	–	> 40.3
COc1ccc2cnn(-c3ccccc3)c(=O)c2c1OC	–	> 40.3
Cc1ccc(C2C3=C(CC(C)(C)CC3=O)Nc3[nH]c(=S)[nH]c(=O)c32)cc1 (configuration not stated)	> 66.7 µM (inactive)	> 40.3
CCn1cc(C(=O)NC2CCC(C)CC2)c(=O)c2cc(S(=O)(=O)N3CCCCC3)ccc21 (configuration not stated)	–	> 40.3
Cc1nn(-c2nc3ccccc3s2)c(C)c1Oc1ccccc1O	–	> 40.3
O=C(NCCN1CCOCC1)NC1(C(F)(F)F)Oc2ccc(Cl)cc2O1 (configuration not stated)	–	> 40.3
CCOC(=O)N1CCN(c2cc(NCCC(=O)O)c3c4c(onc24)-c2ccccc2C3=O)CC1	–	30.1
O=C(NCc1cccnc1)C1c2ccccc2C(=O)N1C1CCCCCCC1 (configuration not stated)	–	> 40.3
O=C(O)CC1Oc2ccc(Cl)cc2NC1=O (configuration not stated)	–	> 40.3
CCC(SC1=Nc2ccccc2C2=NC(CC(C)C)C(=O)N12)C(=O)Nc1ccc2c(c1)OCO2 (configuration not stated)	–	> 40.3
COc1cc(C2/C(=C(\O)c3ccc4c(c3)CC(C)O4)C(=O)C(=O)N2CCCn2ccnc2)ccc1O (configuration not stated)	> 66.7 µM (inactive)	> 40.3
COC(=O)c1[nH]c(C)c(/C(O)=C2\C(=O)C(=O)N(CCN3CCOCC3)C2c2cccnc2)c1C (configuration not stated)	> 66.7 µM (inactive)	> 40.3

SMILES	IC50	Ki [µM]
COc1cc(C2C(C(=O)c3ccc(C)o3)=C(O)C(=O)N2CCc2ccccc2)ccc1O (configuration not stated)	> 66.7 µM (inactive)	> 40.3
CC(=O)OCCNc1cc(N2CCN(C)CC2)c2noc3c2c1C(=O)c1ccccc1-3	–	4.2
Nc1ccc(Nc2ccccc2N)cc1	–	9.1
COc1ccc(NC(=O)C2C(=O)NC3(C)CC2c2ccccc2O3)cc1 (configuration not stated)	–	> 40.3
COc1ccccc1C1/C(=C(/O)c2ccccc2)C(=O)C(=O)N1CC(C)O (configuration not stated)	> 66.7 µM (inactive)	> 40.3
COc1ccc(NC(=O)C(c2ccc(C)cc2)N(C)C(=O)c2cnccn2)cc1 (configuration not stated)	–	> 40.3
COc1ccc(/C(O)=C2/C(=O)C(=O)N(CCN3CCOCC3)C2c2ccc(C)cc2)cc1 (configuration not stated)	> 66.7 µM (inactive)	> 40.3
COc1ccc(OC)c(NC(=O)C2C3CCC(C3=C(C)C)C2C(=O)O)c1 (configuration not stated)	–	> 40.3
O=c1c2c(nc3c(-c4ccc(Cl)cc4)c[nH]n13)CCCC2	–	> 40.3
CCOC(=O)Nc1ccc(OC)cc1S(=O)(=O)N1CCCCC1	–	> 40.3
O=c1cc(N2CCc3ccccc32)[nH]c(=O)n1Cc1ccc(F)cc1	–	> 40.3
O=C(NC1CCCC1)c1sc(=S)n2c1[nH]c(=O)c1ccccc12	–	> 40.3
CCOC(=O)c1oc2cc(O)ccc2c(=O)c1-c1ccccc1OC	–	> 40.3
COCc1cc(C2C(C(=O)c3ccco3)=C(O)C(=O)N2CCOCCO)ccc1O (configuration not stated)	> 66.7 µM (inactive)	> 40.3
Fc1ccc(-c2nnc3ccc(N4CCCC4)nn23)cc1	–	> 40.3
COc1cc(C2C(C(=O)c3ccco3)=C(O)C(=O)N2c2cc(C)on2)cc(Br)c1O (configuration not stated)	> 66.7 µM (inactive)	> 40.3
COc1ccc(-c2cn3cccnc3n2)cc1NC(=O)CC(C)C	–	27.2
CCCCn1c(NC(C)=O)c(C#N)c2nc3ccccc3nc21	–	> 40.3
COc1ccc(C2C(C(=O)c3ccco3)=C(O)C(=O)N2CCc2ccccc2)cc1OC (configuration not stated)	> 66.7 µM (inactive)	> 40.3
CCOc1cccc(/C(O)=C2/C(=O)C(=O)N(Cc3ccco3)C2c2ccncc2)c1 (configuration not stated)	> 66.7 µM (inactive)	> 40.3
Cc1ccc(C)c(/C(O)=C2\C(=O)C(=O)N(CCCn3ccnc3)C2c2ccncc2)c1 (configuration not stated)	> 66.7 µM (inactive)	> 40.3

SMILES	IC50	Ki [µM]
CCOc1ccc(C2C(C(=O)c3ccco3)=C(O)C(=O)N2Cc2cccnc2)cc1 (configuration not stated)	> 66.7 µM (inactive)	> 40.3
Cc1ccc(C2/C(=C(/O)c3ccc(Cl)cc3)C(=O)C(=O)N2CC2CCCO2)o1 (configuration not stated)	> 66.7 µM (inactive)	> 40.3
COc1ccccc1-c1c(C)oc2cc(OC(=O)c3ccco3)ccc2c1=O	–	> 40.3
C[N+]1(C)[C@@H]2CC(OC(=O)[C@H](CO)c3ccccc3)C[C@H]1[C@@H]1O[C@@H]12 (some centres not stated)	–	> 40.3
O=C(NC1CCCCC1)c1sc(=S)n2c1[nH]c(=O)c1ccccc12	–	> 40.3
CCCCNC(=O)c1sc(=S)n2c1[nH]c(=O)c1ccccc12	–	> 40.3
COc1cc(C2C(C(=O)c3ccco3)=C(O)C(=O)N2CCc2ccccc2)ccc1O (configuration not stated)	> 66.7 µM (inactive)	> 40.3
COc1ccccc1-n1c(CNC(=O)c2ccco2)nnc1SCC(=O)Nc1ccc(F)cc1	–	> 40.3
C=CCn1c(NC(=O)c2ccccc2)c(C#N)c2nc3ccccc3nc21	–	> 40.3
O=S(=O)(Nc1cccc2ncccc12)c1cccs1	–	> 40.3
CCCOc1ccc(C2C(C(=O)c3ccc(C)o3)=C(O)C(=O)N2CCCn2ccnc2)cc1 (configuration not stated)	> 66.7 µM (inactive)	> 40.3
Cc1ccccc1Nc1cc2ccccc2c(=O)[nH]1	–	> 40.3
CC(=O)SCC(=O)N=c1sc2cc(F)ccc2n1C	–	> 40.3
CCSc1nnc(NC(=O)CSc2nnc(Cc3cccn3C)n2CCc2ccccc2)s1	–	> 40.3
COc1ccc(-c2cc(C(F)(F)F)nc(N3CCN(c4ccccc4)CC3)n2)cc1OC	–	> 40.3
Cc1cc(N2C(=O)C(O)=C(C(=O)c3ccco3)C2c2cccnc2)no1 (configuration not stated)	> 66.7 µM (inactive)	> 40.3
CCOc1ccc(C2C(C(=O)c3ccco3)=C(O)C(=O)N2CCCn2ccnc2)cc1 (configuration not stated)	> 66.7 µM (inactive)	> 40.3
CCOc1ccc(/C(O)=C2/C(=O)C(=O)N(CC3CCCO3)C2c2ccc(C)o2)cc1 (configuration not stated)	> 66.7 µM (inactive)	> 40.3
COc1cc(C2C(C(=O)c3cccs3)=C(O)C(=O)N2Cc2ccco2)cc(OC)c1OC (configuration not stated)	> 66.7 µM (inactive)	> 40.3
COc1ccc(C2/C(=C(/O)c3ccccc3)C(=O)C(=O)N2CC(C)O)c(OC)c1 (configuration not stated)	> 66.7 µM (inactive)	> 40.3
CCc1ccccc1NC(=O)C(C#N)Cc1cccnc1 (configuration not stated)	–	> 40.3

SMILES	IC50	Ki [µM]
COc1ccc2nc(Nc3nc(C)c(C(C)=O)s3)sc2c1	–	> 40.3
COCCCN1C(=O)C(O)=C(C(=O)c2ccco2)C1c1ccccc1 (configuration not stated)	> 66.7 µM (inactive)	> 40.3
O=C1CCCC(O)=C1C(C#Cc1ccccc1)C1=C(O)CCCC1=O	> 66.7 µM (inactive)	> 40.3
CCOc1ccccc1Oc1c(C)oc2cc(OC(=O)c3ccco3)ccc2c1=O	–	> 40.3
CC1=C(C#N)C(c2ccc3ncccc3c2)C(C#N)=C(C)N1	> 66.7 µM (inactive)	> 40.3
COc1ccc(-c2c(C)oc3c(CN4CCN(CCO)CC4)c(O)ccc3c2=O)cc1OC	–	> 40.3
Cc1ccc(F)c(NC(=O)C2CCCCC2C(=O)O)c1 (configuration not stated)	–	> 40.3
Cc1[nH]n2c(=O)cc(-c3ccc([N+](=O)[O-])cc3)nc2c1-c1ccccc1	–	19.1
COc1ccc(OC)c(C(=O)c2nc3c(n2O)CCCCC3)c1	–	> 40.3
Cc1ccc(/C(O)=C2\C(=O)C(=O)N(CC(C)O)C2c2ccc(N(C)C)cc2)cc1 (configuration not stated)	> 66.7 µM (inactive)	> 40.3
OCc1nc2ccccc2n1CC(O)Cn1ccc2ccccc21 (configuration not stated)	–	> 40.3
COc1ccc(-c2nnc(Nc3nc4c(OC)cccc4s3)o2)c(OC)c1	–	> 40.3
Cc1[nH]n2c(=O)c3c(nc2c1-c1cccc2ccccc12)CCC3	–	> 40.3
Cc1ccsc1C1C2=C(CC(C)(C)CC2=O)Nc2ncnn21 (configuration not stated)	> 66.7 µM (inactive)	> 40.3
Cc1ccc(NC(=O)C2CCCN2S(=O)(=O)c2cccc3cccnc23)cc1F (configuration not stated)	–	> 40.3
COc1ccccc1Oc1c(C)oc2c(CN(C)C)c(O)ccc2c1=O	–	> 40.3
Cc1oc2cc(O)cc(O)c2c(=O)c1-c1ccc2c(c1)OCCCO2	–	> 40.3
COCCN1C(=O)C(O)=C(C(=O)c2cccs2)C1c1ccccc1 (configuration not stated)	> 66.7 µM (inactive)	> 40.3
CCOC(=O)C1CCN(Cc2ccc(C(=O)OC)cc2)CC1	–	> 40.3
Cc1cccc(Nc2ccccc2C(=O)NCc2ccco2)c1C	–	> 40.3
